The record followed here is patent US12581252B2, “Substituted pyrrolo[3,4-b]pyridines as PI3K-α inhibitors” (Relay Therapeutics, Inc., priority 2020, dated 2026).

In the assay the target is H1047R PIK3CA enzyme (Homo sapiens, UniProt P42336, H1047R). Nature of the assay: ADP-Glo Biochemical PIK3CA Kinase Assay. For orientation: ADP-Glo first removes unused ATP, then detects ADP through luciferase.
H1047R PIK3CA enzyme, sequence (P42336 whole entry H1047R): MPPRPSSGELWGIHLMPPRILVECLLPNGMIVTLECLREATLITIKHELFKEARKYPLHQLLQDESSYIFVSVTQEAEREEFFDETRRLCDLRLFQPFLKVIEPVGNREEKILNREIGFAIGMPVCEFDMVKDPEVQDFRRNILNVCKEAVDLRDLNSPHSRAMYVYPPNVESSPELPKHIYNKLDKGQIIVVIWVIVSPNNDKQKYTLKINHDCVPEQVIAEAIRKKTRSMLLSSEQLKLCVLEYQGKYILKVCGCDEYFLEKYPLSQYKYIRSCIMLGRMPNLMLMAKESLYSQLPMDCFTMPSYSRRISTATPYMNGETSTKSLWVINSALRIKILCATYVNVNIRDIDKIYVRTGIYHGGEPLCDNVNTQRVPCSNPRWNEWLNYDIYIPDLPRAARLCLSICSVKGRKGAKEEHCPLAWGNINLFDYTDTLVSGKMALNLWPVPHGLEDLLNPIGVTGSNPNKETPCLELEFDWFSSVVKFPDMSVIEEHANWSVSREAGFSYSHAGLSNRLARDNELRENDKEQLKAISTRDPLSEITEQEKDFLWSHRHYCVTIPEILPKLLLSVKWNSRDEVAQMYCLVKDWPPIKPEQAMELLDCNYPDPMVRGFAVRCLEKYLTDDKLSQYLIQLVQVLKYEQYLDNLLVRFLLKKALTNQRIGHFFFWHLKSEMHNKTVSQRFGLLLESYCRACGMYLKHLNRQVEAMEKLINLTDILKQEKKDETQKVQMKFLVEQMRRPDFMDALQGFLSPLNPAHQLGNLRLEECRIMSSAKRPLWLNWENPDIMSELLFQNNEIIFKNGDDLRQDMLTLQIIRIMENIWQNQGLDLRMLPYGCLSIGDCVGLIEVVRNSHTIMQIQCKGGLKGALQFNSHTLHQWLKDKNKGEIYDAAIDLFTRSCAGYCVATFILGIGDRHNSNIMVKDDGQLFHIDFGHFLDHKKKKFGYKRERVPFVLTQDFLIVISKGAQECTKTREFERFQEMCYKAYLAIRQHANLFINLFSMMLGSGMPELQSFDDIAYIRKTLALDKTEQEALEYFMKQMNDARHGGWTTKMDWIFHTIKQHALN
H1047R PIK3CA enzyme, sequence (P27986 whole entry partner): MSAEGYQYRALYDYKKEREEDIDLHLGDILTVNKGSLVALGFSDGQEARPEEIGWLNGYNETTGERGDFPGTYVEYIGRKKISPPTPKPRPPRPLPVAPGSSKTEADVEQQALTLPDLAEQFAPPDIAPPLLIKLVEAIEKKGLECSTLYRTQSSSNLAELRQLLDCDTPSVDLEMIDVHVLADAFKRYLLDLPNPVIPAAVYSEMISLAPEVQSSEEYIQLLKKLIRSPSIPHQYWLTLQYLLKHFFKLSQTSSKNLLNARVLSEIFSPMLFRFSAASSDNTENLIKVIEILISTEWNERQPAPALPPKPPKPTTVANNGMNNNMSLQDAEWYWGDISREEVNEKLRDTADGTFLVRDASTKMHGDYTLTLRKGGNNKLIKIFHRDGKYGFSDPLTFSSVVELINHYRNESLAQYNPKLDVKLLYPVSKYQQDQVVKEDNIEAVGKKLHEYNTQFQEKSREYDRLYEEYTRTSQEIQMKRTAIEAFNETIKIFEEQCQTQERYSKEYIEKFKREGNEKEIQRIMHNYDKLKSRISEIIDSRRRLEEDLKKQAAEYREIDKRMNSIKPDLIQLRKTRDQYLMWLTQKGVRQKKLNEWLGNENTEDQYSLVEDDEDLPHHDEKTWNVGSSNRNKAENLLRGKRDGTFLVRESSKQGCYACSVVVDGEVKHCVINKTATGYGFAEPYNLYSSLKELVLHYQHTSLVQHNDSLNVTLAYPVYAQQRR
Regarding `CC(C)(O)c1cc(NC(=O)N2CCc3ccccc32)c2c(c1)C(=O)NC2c1cc(F)ccc1Cl` (centres unmarked) [Compound I-308], the IC50 (in general, the concentration that inhibits the measured activity by half) was at most 100 nM.

The molecule `COc1cnc(-c2cc(NC(=O)c3cc(F)cc(C(F)(F)F)c3)c3c(c2)C(=O)NC3c2cc(F)ccc2Cl)cn1` (centres unmarked) [Compound I-1103] showed a half-inhibitory concentration (IC50) of at most 100 nM.

In turn, `O=C(Nc1cc(Br)cc2c1C(c1cc(F)ccc1Cl)NC2=O)c1ccc[n+]([O-])c1` (centres unmarked) [Compound I-1284] showed an IC50 of 10000 to 100000 nM. In turn, `O=C(Nc1cc(N2CC(F)(F)C2)nc2c1C(c1cc(F)ccc1Cl)NC2=O)c1cc(F)cc(C(F)(F)F)c1` (centres unmarked) [Compound I-286, N-[5-(2-Chloro-5-fluorophenyl)-2-(3,3-difluoroazetidin-1-yl)-7-oxo-5H,6H,7H-pyrrolo[3,4-b]pyridin-4-yl]-3-fluoro-5-(trifluoromethyl)benzamide] had an IC50 of at most 100 nM. Take `O=C1CC2(CCN(c3cc(NC(=O)c4cc(F)cc(C(F)(F)F)c4)c4c(c3)C(=O)NC4c3cc(F)ccc3Cl)C2)CN1` (centres unmarked) [Compound I-1267]: the IC50 is at most 100 nM. Molecule `O=C(Nc1cc(-c2cnc(C(F)(F)F)s2)nc2c1C(c1cc(F)ccc1Cl)NC2=O)c1cc(F)cc(Cl)c1` (centres unmarked) [Compound I-496] yielded an IC50 of at most 100 nM.

The molecule `CC[C@@H](CC(=O)Nc1cccc2c1[C@@H](c1cc(F)ccc1Cl)NC2=O)[C@H](C)C(F)(F)F` (single isomer, unassigned) [Compound I-2337] showed an IC50 of 10000 to 100000 nM. `Nc1ccc(COc2cc(NC(=O)c3cc(F)cc(C(F)(F)F)c3)c3c(c2)C(=O)NC3c2cc(F)ccc2Cl)cn1` (centres unmarked) [Compound I-1736] displayed an IC50 of at most 100 nM. `O=C(Nc1cc(-c2ccc3ncnn3n2)cc2c1C(c1cc(F)ccc1Cl)NC2=O)c1cc(F)cc(C(F)(F)F)c1` (centres unmarked) [Compound I-1458]: the IC50 was at most 100 nM.

Molecule `O=C(Nc1cc(-c2csc(C(=O)O)n2)cc2c1C(c1cc(F)ccc1Cl)NC2=O)c1cc(F)cc(C(F)(F)F)c1` (centres unmarked) [Compound I-1201] registered an IC50 of at most 100 nM. For `COc1ncc(-c2cc(NC(=O)c3cc(F)cc(C(F)(F)F)c3)c3c(c2)C(=O)NC3c2cc(F)ccc2Cl)c(N)n1` (centres unmarked) [Compound I-1151] the value was 100 to 500 nM; for `O=C1CCC(c2cc(NC(=O)c3cc(F)cc(C(F)(F)F)c3)c3c(c2)C(=O)NC3c2cc(F)ccc2Cl)N1` (centres unmarked) [Compound I-861], at most 100 nM; for `O=C(Nc1cc(-c2ccc3nc(Cl)nn3c2)cc2c1[C@H](c1cc(F)ccc1Cl)NC2=O)c1cc(F)cc(C(F)(F)F)c1` [Compound I-1693], at most 100 nM.

`Cc1ccccc1C1NC(=O)c2cccc(NC(=O)c3cc(Br)sn3)c21` (centres unmarked) [Compound I-453] registered an IC50 of 10000 to 100000 nM. For `O=C1N[C@H](c2cc(F)ccc2Cl)c2c(NC(=O)N3C[C@@H](C(F)F)c4ccccc43)cccc21` (single isomer, unassigned) [Compound I-2331], the IC50 is 1000 to 10000 nM.

For the molecule `O=C(Nc1cc(O[C@H]2CC[C@H]2O)cc2c1C(c1cc(F)ccc1Cl)NC2=O)c1cc(F)cc(C(F)(F)F)c1` (mixture of isomers) [Compound I-1210], the IC50 is at most 100 nM. Molecule `CC(C)(O)c1cc(NC(=O)c2coc3c(F)cc(F)cc23)c2c(c1)C(=O)NC2c1cc(F)ccc1C(F)F` (centres unmarked) [Compound I-290] showed an IC50 of at most 100 nM. In turn, `O=C(Nc1cc(NC2COC2)cc2c1C(c1cc(F)ccc1Cl)NC2=O)c1cc(F)cc(C(F)(F)F)c1` (centres unmarked) [Compound I-613] returned an IC50 of at most 100 nM.

Consider `N#CCCN(C(=O)c1cc(F)cc(C(F)(F)F)c1)c1cc(O)cc2c1C(c1cc(F)ccc1Cl)NC2=O` (centres unmarked) [Compound I-2251], for which the IC50 fell in the range of 10000 to 100000 nM.

For the molecule `O=C(Nc1cc(Cl)nc2c1[C@@H](c1cc(F)ccc1Cl)NC2=O)c1cc(F)cc(C(F)(F)F)c1` [Compound I-617], the IC50 is at most 100 nM.

In turn, `O=C(Nc1cnc(N2CCOCC2)c2c1C(c1cc(F)ccc1Cl)NC2=O)c1cc(F)cc(C(F)(F)F)c1` (centres unmarked) [Compound I-255] gave a concentration for half-maximal inhibition (IC50) of 1000 to 10000 nM. The value for `CC(=O)Nc1cc(NC(=O)c2cc(F)cc(C(F)(F)F)c2)c2c(c1)C(=O)N[C@H]2c1cc(F)ccc1Cl` [Compound I-461] was at most 100 nM. `N#CCc1cc(NC(=O)N2C[C@](O)(C(F)(F)F)c3ccccc32)c2c(c1)C(=O)N[C@H]2c1cc(F)ccc1Cl` (single isomer, unassigned) [Compound I-2604]: the IC50 lay in the range of 500 to 1000 nM. The molecule `O=C(Nc1cc(CS(=O)(=O)Cc2ccncc2)cc2c1C(c1cc(F)ccc1Cl)NC2=O)c1cc(F)cc(C(F)(F)F)c1` (centres unmarked) [Compound I-1470] displayed an IC50 of at most 100 nM. As to `O=C(Nc1cc(-c2ccnn2C[C@H]2CCOC2)cc2c1C(c1cc(F)ccc1Cl)NC2=O)c1cc(F)cc(C(F)(F)F)c1` (single isomer, unassigned) [Compound I-1406], the IC50 was at most 100 nM. For `O=C(Nc1cc(Br)cc2c1C(c1cc(F)cc(F)c1)NC2=O)c1cc(F)cc(F)c1` (centres unmarked) [Compound I-2156] the value was 1000 to 10000 nM.

`O=C1N[C@@H](c2cc(F)ccc2Cl)c2c(NC(=O)N3C[C@H](O)C[C@@H](C(F)(F)F)C3)cccc21` (single isomer, unassigned) [Compound I-2237] had an IC50 of 1000 to 10000 nM. Take `O=C1NC(c2cccc(F)c2F)c2c(NC(=O)c3csc4ccccc34)ccnc21` (centres unmarked) [Compound I-15, N-(5-(2,3-Difluorophenyl)-7-oxo-6,7-dihydro-5H-pyrrolo[3,4-b]pyridin-4-yl)benzo[b]thiophene-3-carboxamide]: the IC50 lay within 100 to 500 nM.

Molecule `O=C1NC(c2cc(F)ccc2Cl)c2c(NC(=O)C34CCC(CC3)O4)cc(-c3ccc4ncnn4c3)cc21` (centres unmarked) [Compound I-1966] returned an IC50 of 10000 to 100000 nM. Molecule `N#Cc1cc(NC(=O)c2cc(F)cc(C(F)(F)F)c2)c2c(c1)C(=O)N[C@@H]2c1cc(F)ccc1Cl` (single isomer, unassigned) [Compound I-770] had an IC50 of at most 100 nM.

In the case of `O=C(Nc1cc(-c2ccccc2C(=O)O)cc2c1C(c1cc(F)ccc1Cl)NC2=O)c1cc(F)cc(C(F)(F)F)c1` (centres unmarked) [Compound I-1216], the IC50 lay within 100 to 500 nM.

Regarding `O=C1NC(c2cc(F)ccc2Cl)c2c(NC(=O)C3CCCCO3)cc(-c3ccc4ncnn4c3)cc21` (centres unmarked) [Compound I-1803], the IC50 fell in the range of 10000 to 100000 nM.

Molecule `O=C(Nc1cc(N2CC(F)C2)nc2c1C(c1cc(F)ccc1Cl)NC2=O)c1cc(F)cc(C(F)(F)F)c1` (centres unmarked) [Compound I-488] yielded an IC50 of at most 100 nM. For `O=C(Nc1cccc2c1C(c1cc(F)c(F)cc1C(F)F)NC2=O)c1cc(F)cc(Cl)c1` (centres unmarked) [Compound I-331] the value was 100 to 500 nM. `CCOc1cc(C(=O)Nc2cc(Br)cc3c2C(c2cc(F)ccc2Cl)NC3=O)ccc1F` (centres unmarked) [Compound I-556] displayed an IC50 of 1000 to 10000 nM. As to `O=C(Nc1cc(C#CC2(O)COC2)cc2c1C(c1cc(F)ccc1Cl)NC2=O)c1cc(F)cc(C(F)(F)F)c1` (centres unmarked) [Compound I-1154], the IC50 is at most 100 nM.

With `Cc1ccccc1-n1[nH]c(=O)c2cccc(N)c21` [Compound I-64], the IC50 lay within 1000 to 10000 nM. For `O=C1NC(c2cc(F)ccc2Cl)c2c(COc3cc4ccccc4cn3)cc(-c3ccc4ncnn4c3)cc21` (centres unmarked) [Compound I-1981] the value was 1000 to 10000 nM. The value for `O=C1NC(c2cc(F)ccc2Cl)c2c(NC(=O)C3CNCC(C(F)(F)F)C3)cc(-c3ccc4ncnn4c3)cc21` (mixture of isomers) [Compound I-2051] was 10000 to 100000 nM; that for `O=C(Nc1cc(Cc2ccc3c(c2)CCNC3=O)cc2c1[C@H](c1cc(F)ccc1Cl)NC2=O)c1cc(F)cc(C(F)(F)F)c1` [Compound I-1626] was at most 100 nM; that for `O=C(Nc1cc(-c2cn3ncnc3cn2)cc2c1[C@@H](c1cc(F)ccc1C(F)F)NC2=O)c1cc(F)cc(Cl)c1` (single isomer, unassigned) [Compound I-2258] was 1000 to 10000 nM.

In turn, `N#Cc1nc(-c2cc(NC(=O)c3cc(F)cc(C(F)(F)F)c3)c3c(c2)C(=O)NC3c2cc(F)ccc2Cl)cs1` (centres unmarked) [Compound I-1311] displayed an IC50 of at most 100 nM. In the case of `O=C(Nc1ccccc1)Nc1cc(Br)cc2c1[C@H](c1cc(F)ccc1Cl)NC2=O` (stereo in doubt) [Compound I-1945], the half-inhibitory concentration (IC50) was 10000 to 100000 nM.

`[2H]C([2H])(c1cc(NC(=O)c2cc(F)cc(C(F)(F)F)c2)c2c(c1)C(=O)N[C@@H]2c1cc(F)ccc1Cl)S(C)(=O)=O` (single isomer, unassigned) [Compound I-1788]: the IC50 is 100 to 500 nM.

Regarding `O=C1N[C@@H](c2cc(F)ccc2Cl)c2c(NC(=O)[C@H]3CC[C@@H](C(F)(F)F)C3)cccc21` [Compound I-2085], the IC50 was in the range of 1000 to 10000 nM. Turning to `N#Cc1cc(NC(=O)c2cc(F)cc(Cl)c2)c2c(c1)C(=O)NC2c1cc(F)ccc1Cl` (centres unmarked) [Compound I-531], the 50% inhibitory concentration (IC50) was at most 100 nM. The molecule `CC1(Cc2cc(NC(=O)N3C[C@@](O)(C(F)(F)F)c4cc(F)ccc43)c3c(c2)C(=O)N[C@@H]3c2cc(F)ccc2Cl)COC1` (single isomer, unassigned) [Compound I-2658] displayed an IC50 of 1000 to 10000 nM. In turn, `N#CCc1cc(NC(=O)N2C[C@@](O)(C(F)F)c3cc(F)ccc32)c2c(c1)C(=O)N[C@@H]2c1cc(F)ccc1Cl` (single isomer, unassigned) [Compound I-2600] registered an IC50 of 500 to 1000 nM. `Nc1cc(NC(=O)c2cc(F)cc(C(F)(F)F)c2)c2c(c1)C(=O)NC2c1cccc(F)c1` (centres unmarked) [Compound I-2320] showed an IC50 of 500 to 1000 nM. As to `CS(C)(=O)=Nc1cc(NC(=O)c2cc(F)cc(C(F)(F)F)c2)c2c(c1)C(=O)NC2c1cc(F)ccc1Cl` (centres unmarked) [Compound I-1254], the IC50 was 100 to 500 nM. Turning to `Cc1ccccc1C1NC(=O)c2nccc(NC(=O)N3CCc4ncccc43)c21` (centres unmarked) [Compound I-199], the IC50 is 10000 to 100000 nM. Consider `Cc1ccccc1C1NC(=O)c2cccc(N)c21` (centres unmarked) [Compound I-62], for which the IC50 lay in the range of 10000 to 100000 nM.

`CC(C)(O)c1cc(NC(=O)c2cc(F)cc(C(F)(F)F)c2)c2c(c1)C(=O)NC2c1ccccc1Cl` (centres unmarked) [Compound I-439] returned an IC50 of 100 to 500 nM. In turn, `CC1(C(=O)Nc2cc(Br)cc3c2C(c2cc(F)ccc2Cl)NC3=O)CCCC(C(F)(F)F)C1` (mixture of isomers) [Compound I-1358] had an IC50 of 100 to 500 nM. The value for `O=C1Cc2c(cccc2-c2cc(NC(=O)c3cc(F)cc(C(F)(F)F)c3)c3c(c2)C(=O)NC3c2cc(F)ccc2Cl)N1` (centres unmarked) [Compound I-1034] was at most 100 nM; that for `O=C(Nc1cc(CS(=O)(=O)c2cccnc2)cc2c1C(c1cc(F)ccc1Cl)NC2=O)c1cc(F)cc(C(F)(F)F)c1` (centres unmarked) [Compound I-1536] was at most 100 nM.
